Literature values in patent publication EP0349514A1, “Prolonged-release pharmaceutical composition containing erythromycine, its preparation and its use” (priority 1988, dated 1990).

Settings: plasma

## CC[C@H]1OC(=O)[C@H](C)[C@@H](O[C@H]2C[C@@](C)(OC)[C@@H](O)[C@H](C)O2)[C@H](C)[C@@H](O[C@@H]2O[C@H](C)C[C@H](N(C)C)[C@H]2O)[C@](C)(O)C[C@@H](C)C(=O)[C@H](C)[C@@H](O)[C@]1(C)O [érythromycine]
  temps de demi-vie plasmatique t 1/2: 1,6 h
